Source: US20240238294A1, “ANTICANCER THERAPY” (Boehringer Ingelheim International GmbH, priority 2021, published 2024)
pIC50: −log10 of the molar value. Where two headings read alike, the source gives them in different places.

Tests used:
[1] = test system: H358 cells with KRAS G12C + Y96S; settings: 2D, monotherapy
Description: (§1) Briefly, each KRAS mutation was introduced using a Prime STAR Mutagenesis Basal Kit (Takara) with designed primers into the pBABE-puro-KRas construct (Addgene, Cambridge, MA, USA). Retroviral particles were generated by co-transfection of each pBABE-puro-KRAS construct and pVSV-G vector (Clontech, Fremont, CA, USA) into gp-IRES 293 cells with FuGENE6 transfection reagent (Roche Diagnostics, Basel, Switzerland). Viral particles were concentrated using a retrovirus concentration kit (Clontech). […] The transfected Ba/F3 cells or H358 cells were selected with 0.8-1.0 μg/mL or 2.0 μg/mL of puromycin, respectively. […]
(§2) In the two-dimensional (2D) growth inhibition assay, 5x10^3 cells were cultured in 96-well plates for 24 hours and treated with reagents at ten different concentrations for 72 hr. […] The amount of formazan dye, which reflects cell viability, was measured by reading the absorbance at 450 nm using a multiplate reader (Tecan, Mannedorf, Switzerland). […] IC50 values were determined by a nonlinear regression curve fit utilizing a variable slope model with normalized the response in GraphPad prism version 8 (GraphPad Software, San Diego, CA). […]

[2] = test system: H358 cells with KRAS G12C + Y96D; settings: 2D, monotherapy
Description: as §1, §2

[3] = test system: H358 cells with KRAS G12C + Y96S; settings: 3D, monotherapy
Description: (§3) Briefly, each KRAS mutation was introduced using a Prime STAR Mutagenesis Basal Kit (Takara) with designed primers into the pBABE-puro-KRas construct (Addgene, Cambridge, MA, USA). Retroviral particles were generated by co-transfection of each pBABE-puro-KRAS construct and pVSV-G vector (Clontech, Fremont, CA, USA) into gp-IRES 293 cells with FuGENE6 transfection reagent (Roche Diagnostics, Basel, Switzerland). Viral particles were concentrated using a retrovirus concentration kit (Clontech). Ba/F3 cells (3×103) or H358 cells (1×104) were transfected with each retrovirus and cultured at 37° C. for a few days. The transfected Ba/F3 cells or H358 cells were selected with 0.8-1.0 μg/mL or 2.0 μg/mL of puromycin, respectively. […]
as §2

[4] = test system: H358 cells with KRAS G12C + Y96D; settings: 3D, monotherapy
Description: as §3, §2

[5] = test system: Ba/F3 cells harboring KRAS G12C + Y96D (introduced); assay: growth inhibition assay, Ba/F3 cells with introduced KRAS G12C plus secondary mutation; format: cell-based, murine; settings: Table 3, Ba/F3 G12C + Y96D
Description: (§4) Briefly, each KRAS mutation was introduced using a Prime STAR Mutagenesis Basal Kit (Takara) with designed primers into the pBABE-puro-KRas construct (Addgene, Cambridge, MA, USA). Retroviral particles were generated by co-transfection of each pBABE-puro-KRAS construct and pVSV-G vector (Clontech, Fremont, CA, USA) into gp-IRES 293 cells with FuGENE6 transfection reagent (Roche Diagnostics, Basel, Switzerland). Viral particles were concentrated using a retrovirus concentration kit (Clontech). Ba/F3 cells (3×103) or H358 cells (1×104) were transfected with each retrovirus and cultured at 37° C. for a few days. The transfected Ba/F3 cells or H358 cells were selected with 0.8-1.0 μg/mL or 2.0 μg/mL of puromycin, respectively. After puromycin selection, presence of each KRAS mutation was confirmed as follows; total RNA was extracted from cells using a mirVana miRNA Isolation Kit (Qiagen, Hilden, Germany), and cDNA was generated by reverse transcription using ReverTra Ace (TOYOBO, Osaka, Japan). The KRAS coding sequence was amplified by PCR. The KRAS nucleotide sequence was checked by Sanger sequencing using the 3130 or 3500XL Genetic Analyzer (Applied Biosystems, Waltham, MA).
(§5) In the two-dimensional (2D) growth inhibition assay, 5x10^3 cells were cultured in 96-well plates for 24 hours and treated with reagents at ten different concentrations for 72 hr. Cell viability assays were performed using Cell Counting Kit-8 (Dojindo Laboratories, Kumamoto, Japan). The amount of formazan dye, which reflects cell viability, was measured by reading the absorbance at 450 nm using a multiplate reader (Tecan, Mannedorf, Switzerland). In the 3D growth inhibition assay, 5×10^3 cells were embedded in growth factor-reduced Matrigel (Corning, New York, USA) and cultured in RPMI 1640 medium (Wako) with 10% FBS (Sigma-Aldrich) and P/S (Wako) in 96-well plates. After 72 hours of incubation, cells were treated with the indicated concentrations for 72 hours, and a cell viability assay was performed as described above. IC50 values were determined by a nonlinear regression curve fit utilizing a variable slope model with normalized the response in GraphPad prism version 8 (GraphPad Software, San Diego, CA).
(§6) The RI value was calculated with the following formula: IC50 of each reconstructed Ba/F3 cell/IC50 of parental Ba/F3 cells with KRAS G12C.
(§7) The results are shown as the mean values of three individual experiments. Error bars indicate the standard deviation (SD).

[6] = test system: Ba/F3 cells harboring KRAS G12C + Y96S (introduced); assay: as above; format: cell-based, murine; settings: Table 3, Ba/F3 G12C + Y96S
Description: as §4, §5, §6, §7

[7] = test system: Ba/F3 cells harboring KRAS G12C + A59S (introduced); assay: as above; format: cell-based, murine; settings: Mus musculus, BaF3; Table 3, Ba/F3 G12C + A59S, 72 hours
Description: as §4, §5, §6, §7

[8] = test system: Ba/F3 cells harboring KRAS G12C; assay: growth inhibition assay, Ba/F3 cells with KRAS G12C; format: cell-based, murine; settings: Mus musculus, BaF3; Table 3, Ba/F3 G12C, 72 hours
Description: as §3, §2

[9] = test system: H358 cells harboring G12C plus Y96S; settings: 72 hours, FIG. 4
Description: as §3, §2

[10] = test system: H358 cells harboring G12C plus Y96D; settings: 72 hours, FIG. 4
Description: as §3, §2

Structure (SMILES): COc1cc2nc(C)nc(N[C@H](C)c3cc(N)cc(C(F)(F)F)c3)c2cc1O[C@H]1CCOC1 [BI-3406]
- growth inhibition [1]: modestly inhibited growth
- growth inhibition [2]: modestly inhibited growth
- growth inhibition [3]: modestly inhibited growth
- growth inhibition [4]: modestly inhibited growth

Structure (SMILES): C[C@@H]1OCC2(CCN(c3cnc(Sc4ccnc(N)c4Cl)c(N)n3)CC2)[C@@H]1N [TNO 155]
- pIC50 ([5]; Mus musculus, BaF3, 72 h): < 6.00
- pIC50 ([5]; 72 hours): 5.96
- pIC50 ([6]; Mus musculus, BaF3, 72 h): < 6.00
- pIC50 ([6]; 72 hours): 5.94
- pIC50 [7]: 5.52
- pIC50 [8]: 6.34

Structure (SMILES): C=CC(=O)N1CCN(c2nc(=O)n(-c3c(C)ccnc3C(C)C)c3nc(-c4c(O)cccc4F)c(F)cc23)[C@@H](C)C1 [sotorasib]
- IC50 compared to parental H358 cells [9]: approximately 30 times
- IC50 compared to parental H358 cells [10]: approximately 30 times
